Test: xn = mol fraction of the nth substance listed
Details: 101 kPa, Liquid

OCCOCCO [diethylene glycol] + O
Details | mass density [kg/m3] | viscosity [mPa·s]
283.15 K, x1 = 0.0255 | 1019.73 | –
283.15 K, x1 = 0.0565 | 1040.15 | –
283.15 K, x1 = 0.1027 | 1063.34 | –
283.15 K, x1 = 0.1966 | 1091.18 | –
283.15 K, x1 = 0.301 | 1106.34 | –
283.15 K, x1 = 0.3989 | 1113.62 | –
283.15 K, x1 = 0.5006 | 1117.88 | –
283.15 K, x1 = 0.6011 | 1120.39 | –
283.15 K, x1 = 0.7003 | 1121.98 | –
283.15 K, x1 = 0.8051 | 1123.07 | –
283.15 K, x1 = 0.892 | 1123.64 | –
283.15 K, x1 = 1 | 1124.24 | –
288.15 K, x1 = 0.0255 | 1018.61 | –
288.15 K, x1 = 0.0565 | 1038.42 | –
288.15 K, x1 = 0.1027 | 1060.91 | –
288.15 K, x1 = 0.1966 | 1088.01 | –
288.15 K, x1 = 0.301 | 1102.88 | –
288.15 K, x1 = 0.3989 | 1110.06 | –
288.15 K, x1 = 0.5006 | 1114.29 | –
288.15 K, x1 = 0.6011 | 1116.8 | –
288.15 K, x1 = 0.7003 | 1118.39 | –
288.15 K, x1 = 0.8051 | 1119.47 | –
288.15 K, x1 = 0.892 | 1120.05 | –
288.15 K, x1 = 1 | 1120.65 | –
293.15 K, x1 = 0.0255 | 1017.27 | 1.429
293.15 K, x1 = 0.0565 | 1036.53 | 2.223
293.15 K, x1 = 0.1027 | 1058.39 | 3.639
293.15 K, x1 = 0.1966 | 1084.81 | 7.452
293.15 K, x1 = 0.301 | 1099.4 | 12.6
293.15 K, x1 = 0.3989 | 1106.48 | 17.48
293.15 K, x1 = 0.5006 | 1110.68 | 22.22
293.15 K, x1 = 0.6011 | 1113.19 | 26
293.15 K, x1 = 0.7003 | 1114.79 | 29.46
293.15 K, x1 = 0.8051 | 1115.87 | 32.26
293.15 K, x1 = 0.892 | 1116.45 | 34.04
293.15 K, x1 = 1 | 1117.05 | 36.43
298.15 K, x1 = 0.0255 | 1015.72 | –
298.15 K, x1 = 0.0565 | 1034.5 | –
298.15 K, x1 = 0.1027 | 1055.77 | –
298.15 K, x1 = 0.1966 | 1081.56 | –
298.15 K, x1 = 0.301 | 1095.89 | –
298.15 K, x1 = 0.3989 | 1102.89 | –
298.15 K, x1 = 0.5006 | 1107.07 | –
298.15 K, x1 = 0.6011 | 1109.59 | –
298.15 K, x1 = 0.7003 | 1111.19 | –
298.15 K, x1 = 0.8051 | 1112.27 | –
298.15 K, x1 = 0.892 | 1112.86 | –
298.15 K, x1 = 1 | 1113.47 | –
303.15 K, x1 = 0.0255 | 1013.97 | 1.115
303.15 K, x1 = 0.0565 | 1032.33 | 1.674
303.15 K, x1 = 0.1027 | 1053.07 | 2.629
303.15 K, x1 = 0.1966 | 1078.28 | 5.148
303.15 K, x1 = 0.301 | 1092.36 | 8.358
303.15 K, x1 = 0.3989 | 1099.29 | 11.4
303.15 K, x1 = 0.5006 | 1103.45 | 14.15
303.15 K, x1 = 0.6011 | 1105.97 | 16.34
303.15 K, x1 = 0.7003 | 1107.58 | 18.48
303.15 K, x1 = 0.8051 | 1108.67 | 20
303.15 K, x1 = 0.892 | 1109.27 | 21.19
303.15 K, x1 = 1 | 1109.88 | 22.09
308.15 K, x1 = 0.0255 | 1011.83 | –
308.15 K, x1 = 0.0565 | 1030.02 | –
308.15 K, x1 = 0.1027 | 1050.27 | –
308.15 K, x1 = 0.1966 | 1074.94 | –
308.15 K, x1 = 0.301 | 1088.8 | –
308.15 K, x1 = 0.3989 | 1095.67 | –
308.15 K, x1 = 0.5006 | 1099.82 | –
308.15 K, x1 = 0.6011 | 1102.36 | –
308.15 K, x1 = 0.7003 | 1103.97 | –
308.15 K, x1 = 0.8051 | 1105.06 | –
308.15 K, x1 = 0.892 | 1105.68 | –
308.15 K, x1 = 1 | 1106.29 | –
313.15 K, x1 = 0.0255 | 1009.99 | 0.959
313.15 K, x1 = 0.0565 | 1027.57 | 1.298
313.15 K, x1 = 0.1027 | 1047.39 | 1.984
313.15 K, x1 = 0.1966 | 1071.56 | 3.716
313.15 K, x1 = 0.301 | 1085.22 | 5.847
313.15 K, x1 = 0.3989 | 1092.03 | 7.761
313.15 K, x1 = 0.5006 | 1096.18 | 9.506
313.15 K, x1 = 0.6011 | 1098.73 | 10.93
313.15 K, x1 = 0.7003 | 1100.35 | 12.22
313.15 K, x1 = 0.8051 | 1101.45 | 13.2
313.15 K, x1 = 0.892 | 1102.09 | 13.93
313.15 K, x1 = 1 | 1102.7 | 14.56
318.15 K, x1 = 0.0255 | 1007.73 | –
318.15 K, x1 = 0.0565 | 1025.01 | –
318.15 K, x1 = 0.1027 | 1044.41 | –
318.15 K, x1 = 0.1966 | 1068.13 | –
318.15 K, x1 = 0.301 | 1081.61 | –
318.15 K, x1 = 0.3989 | 1088.37 | –
318.15 K, x1 = 0.5006 | 1092.53 | –
318.15 K, x1 = 0.6011 | 1095.08 | –
318.15 K, x1 = 0.7003 | 1096.71 | –
318.15 K, x1 = 0.8051 | 1097.83 | –
318.15 K, x1 = 0.892 | 1098.49 | –
318.15 K, x1 = 1 | 1099.11 | –
323.15 K, x1 = 0.0255 | 1005.37 | 0.754
323.15 K, x1 = 0.0565 | 1022.33 | 1.031
323.15 K, x1 = 0.1027 | 1041.36 | 1.545
323.15 K, x1 = 0.1966 | 1064.65 | 2.783
323.15 K, x1 = 0.301 | 1077.97 | 4.231
323.15 K, x1 = 0.3989 | 1084.69 | 5.509
323.15 K, x1 = 0.5006 | 1088.85 | 6.694
323.15 K, x1 = 0.6011 | 1091.42 | 7.635
323.15 K, x1 = 0.7003 | 1093.07 | 8.477
323.15 K, x1 = 0.8051 | 1094.21 | 9.115
323.15 K, x1 = 0.892 | 1094.88 | 9.635
323.15 K, x1 = 1 | 1095.51 | 10.03
328.15 K, x1 = 0.0255 | 1002.86 | –
328.15 K, x1 = 0.0565 | 1019.53 | –
328.15 K, x1 = 0.1027 | 1038.21 | –
328.15 K, x1 = 0.1966 | 1061.13 | –
328.15 K, x1 = 0.301 | 1074.29 | –
328.15 K, x1 = 0.3989 | 1080.98 | –
328.15 K, x1 = 0.5006 | 1085.16 | –
328.15 K, x1 = 0.6011 | 1087.74 | –
328.15 K, x1 = 0.7003 | 1089.41 | –
328.15 K, x1 = 0.8051 | 1090.57 | –
328.15 K, x1 = 0.892 | 1091.26 | –
328.15 K, x1 = 1 | 1091.91 | –
333.15 K, x1 = 0.0255 | 1000.22 | 0.62
333.15 K, x1 = 0.0565 | 1016.62 | 0.849
333.15 K, x1 = 0.1027 | 1034.99 | 1.236
333.15 K, x1 = 0.1966 | 1057.55 | 2.147
333.15 K, x1 = 0.301 | 1070.58 | 3.202
333.15 K, x1 = 0.3989 | 1077.25 | 4.103
333.15 K, x1 = 0.5006 | 1081.43 | 4.917
333.15 K, x1 = 0.6011 | 1084.04 | 5.534
333.15 K, x1 = 0.7003 | 1085.74 | 6.12
333.15 K, x1 = 0.8051 | 1086.93 | 6.492
333.15 K, x1 = 0.892 | 1087.63 | 6.874
333.15 K, x1 = 1 | 1088.3 | 7.22
338.15 K, x1 = 0.0255 | 997.46 | –
338.15 K, x1 = 0.0565 | 1013.61 | –
338.15 K, x1 = 0.1027 | 1031.68 | –
338.15 K, x1 = 0.1966 | 1053.92 | –
338.15 K, x1 = 0.301 | 1066.84 | –
338.15 K, x1 = 0.3989 | 1073.49 | –
338.15 K, x1 = 0.5006 | 1077.69 | –
338.15 K, x1 = 0.6011 | 1080.33 | –
338.15 K, x1 = 0.7003 | 1082.06 | –
338.15 K, x1 = 0.8051 | 1083.27 | –
338.15 K, x1 = 0.892 | 1083.99 | –
338.15 K, x1 = 1 | 1084.68 | –
343.15 K, x1 = 0.0255 | 994.57 | 0.527
343.15 K, x1 = 0.0565 | 1010.51 | 0.71
343.15 K, x1 = 0.1027 | 1028.29 | 1.011
343.15 K, x1 = 0.1966 | 1050.24 | 1.703
343.15 K, x1 = 0.301 | 1063.06 | 2.514
343.15 K, x1 = 0.3989 | 1069.69 | 3.15
343.15 K, x1 = 0.5006 | 1073.93 | 3.731
343.15 K, x1 = 0.6011 | 1076.59 | 4.217
343.15 K, x1 = 0.7003 | 1078.36 | 4.617
343.15 K, x1 = 0.8051 | 1079.6 | 4.863
343.15 K, x1 = 0.892 | 1080.34 | 5.121
343.15 K, x1 = 1 | 1081.05 | 5.369
348.15 K, x1 = 0.0255 | 991.57 | –
348.15 K, x1 = 0.0565 | 1007.27 | –
348.15 K, x1 = 0.1027 | 1024.84 | –
348.15 K, x1 = 0.1966 | 1046.51 | –
348.15 K, x1 = 0.301 | 1059.24 | –
348.15 K, x1 = 0.3989 | 1065.88 | –
348.15 K, x1 = 0.5006 | 1070.14 | –
348.15 K, x1 = 0.6011 | 1072.84 | –
348.15 K, x1 = 0.7003 | 1074.63 | –
348.15 K, x1 = 0.8051 | 1075.91 | –
348.15 K, x1 = 0.892 | 1076.67 | –
348.15 K, x1 = 1 | 1077.4 | –
353.15 K, x1 = 0.0255 | 988.5 | 0.465
353.15 K, x1 = 0.0565 | 1004.07 | 0.606
353.15 K, x1 = 0.1027 | 1021.3 | 0.848
353.15 K, x1 = 0.1966 | 1042.72 | 1.392
353.15 K, x1 = 0.301 | 1055.38 | 2.043
353.15 K, x1 = 0.3989 | 1062.02 | 2.502
353.15 K, x1 = 0.5006 | 1066.32 | 2.942
353.15 K, x1 = 0.6011 | 1069.05 | 3.283
353.15 K, x1 = 0.7003 | 1070.89 | 3.593
353.15 K, x1 = 0.8051 | 1072.2 | 3.818
353.15 K, x1 = 0.892 | 1072.99 | 4.024
353.15 K, x1 = 1 | 1073.74 | 4.139

From the NIST ThermoML archive (doi:10.1021/je700672f)
